Read-outs that look alike come from different tables or passages of the source. Marks after values point to notes of the source that are not given here. Numbered stars: 1 amine (or outer) side, 2 acyl side, 3 side chain; on linkers, the order of the positions; unused ones are H or OH. Bridge positions count the residues as written; N and C are the ends. Square brackets hold non-standard residues; d marks the D form. Peptide text beside a SMILES is read from it. * marks the point of attachment. X2 = COc1cc2cc(c1Cl)N(C)C(=O)C[C@H](OC(=O)[C@H](C)N(C)C(=O)CCC(C)SSC(C)CCC(=O)*)[C@]1(C)O[C@H]1[C@H](C)[C@@H]1C[C@@](O)(NC(=O)O1)[C@H](OC)/C=C/C=C(\C)C2; X3 = COc1cc2cc(c1Cl)N(C)C(=O)C[C@H](OC(=O)[C@H](C)N(C)C(=O)CCSSCCCC(=O)*)[C@]1(C)O[C@H]1[C@H](C)[C@@H]1C[C@@](O)(NC(=O)O1)[C@H](OC)/C=C/C=C(\C)C2; 1Nal = N[C@@H](Cc1cccc2ccccc12)C(=O)O; TBMB = c1c(C[*:1])cc(C[*:3])cc1C[*:2]; Tle = CC(C)(C)[C@H](N)C(=O)O; βAla = NCCC(=O)O; Sar = CNCC(=O)O
Key:
[1] = Mouse pharmacokinetics, single intravenous dose; format: in vivo; settings: male CD1 mice, single intravenous 5.925 mg/kg, mean
Procedure: Mouse pharmacokinetics were acquired using bicyclic peptide 17-69-04-N004, which was dosed to one group of 12 male CD1 mice as a single intravenous, 5.925 mg/kg doses as a 5 mL/kg bolus of a 1.19 mg/mL solution. […] Blood samples were taken from two animals per time-point, via cardiac puncture under terminal anaesthesia, at 0.08, 0.5, 1, 2 and 4 hours post-dose, and transferred to EDTA tubes for plasma generation. Plasma samples were immediately frozen at −20 C. For analysis, samples were thawed rapidly and 50 μL aliquots were treated with 3 volumes of extraction solvent (2:9:9 mixture of 10 mM ammonium bicarbonate, pH 8, acetonitrile and methanol, containing an analytical internal standard). Precipitated proteins were removed by centrifugation and the supernatant was analysed by LC-MS/MS. Quantification of the samples was by reference to a calibration line prepared in control mouse plasma. Pharmacokinetic parameters were determined by non-compartmental analysis using the software package PK Solutions 2.0 from Summit Research Services.
Cmax: Maximum measured concentration;
Tmax: Time at which maximum concentration was measured;
AUC 0-t: Area under the plasma drug concentration/time curve from 0 minutes to last quantifiable data point; and
AUC 0-∞: Area under the plasma drug concentration/time curve from 0 minutes extrapolated beyond the final data point based on the terminal half-life.

[2] = biological target: T1, MT1-MMP hemopexin domain (PEX) (Homo sapiens, UniProt P50281); experiment: Competition assay using fluorescence polarisation; format: binding
T1 construct: residues Cys319-Gly511 from the human gene; His6 (N); made in house; host or cells: HEK293 (transient, pEXPR-IBA42 vector)
Text: (§1) Here, a pre-formed complex of PEX with the fluorescent PEX-binding tracer is titrated with free, non-fluoresceinated bicyclic peptide. Since all 17-69-based peptides are expected to bind at the same site, the titrant will displace the fluorescent tracer from PEX. Dissociation of the complex can be measured quantitatively, and the Kd of the competitor (titrant) to the target protein determined. The advantage of the competition method is that the affinities of non-fluoresceinated bicyclic peptides can be determined accurately and rapidly.
(§2) Subsequently, the non-fluorescent competitor bicyclic peptide (usually just the bicycle core sequence) is titrated, such that it displaces the fluorescent tracer from the target protein. The displacement of the tracer is measured and associated with a drop in fluorescence polarisation. The drop in fluorescence polarisation is proportional to the fraction of target protein bound with the non-fluorescent titrant, and thus is a measure of the affinity of titrant to target protein.
(§3) The raw data is fit to the analytical solution of the cubic equation that describes the equilibria between fluorescent tracer, titrant, and binding protein. The fit requires the value of the affinity of fluorescent tracer to the target protein, which can be determined separately by direct binding FP experiments (see previous section).

[3] = biological target: MT1-MMP hemopexin domain; experiment: FP competition, species cross-reactivity (dog); format: binding; settings: Table 13
Text: as §1, §2
as §3, with “section). […]” for “section).”

[4] = Plasma stability, quantitative LC-MS (Method #2); format: in vitro ADME, mouse; settings: for half-life at 4 μM: mouse, quantitative LC-MS, incubation up to 24 hrs, 4 μM BDC, read-out: t1/2 (hrs) (mouse plasma) (converted)
Procedure: (§4) To obtain plasma stability of bicyclic peptides quantitatively, peptide stock solutions (200 μM in DMSO) were mixed with plasma (human or mouse), such that final concentrations were 10 μM. 40 μL samples were taken periodically up to 8 hrs and frozen at −80° C. Prior to LC-MS analysis, samples were defrosted, and mixed with 3 volumes (here, 120 μL) of 1:1 acetonitrile/MeOH water. The milky suspensions were centrifuged for 30 min at 13000 rpm, and peptide-containing supernatants were quantitated for doubly/triply charged species and MS/MS fragments thereof using a Waters Xevo TQ-D instrument, while using a plasma extracted standard curve of the same peptides as a reference. The half-life of degradation in plasma was used to assess the comparative stability of the molecules.

[5] = Plasma stability, quantitative LC-MS (Method #2); format: in vitro ADME, human; settings: human, human plasma
Procedure: as §4, with “[…] […]” for “To obtain plasma stability of bicyclic peptides quantitatively, peptide stock solutions (200 μM in DMSO) were mixed with plasma (human or mouse), such that final concentrations were 10 μM. 40 μL samples were taken periodically up to 8 hrs and frozen at −80° C.”

[6] = Plasma stability, quantitative LC-MS; format: in vitro ADME; settings: rat, incubation up to 24 hrs, 4 μM BDC, read-out: t1/2 (hrs) (rat plasma) (converted)
Procedure: (§5) The four BDCs were assessed for several in vitro parameters such as retention of potency to the human MT1-MMP hemopexin domain, stability in ex vivo mouse, rat and human plasma, and stability to reducing agents such as dithiothreitol.

[7] = test system: HT-1080 xenograft tumours; experiment: Efficacy in HT-1080 xenograft mice; format: in vivo, mouse; settings: HT1080 xenograft
Procedure: Balb/c nude mice bearing subcutaneous HT-1080 xenograft tumours were treated with BDCs or vehicle (PBS). BDCs were dosed 3 times weekly for 2 weeks, dosing initiated when tumours measured approx. 150-200 mm^3. Mice were monitored, and measurements of tumour volume and body weight recorded 3 times a week.

[8] = test system: human lung squamous cell carcinoma line EBC-1; experiment: Efficacy in EBC-1 xenograft mice; format: in vivo, mouse; settings: for ED50, effective dose to achieve 50% tumour AUC reduction: mouse bearing EBC-1 tumours, ± 95% confidence limit
Procedure: In vivo efficacy of BT17BDC-17, BT17BDC-18, BT17BDC-19 and BT17BDC-20 All BDCs containing the stabilised bicycle core sequence were tested for their efficacies in in vivo mouse xenograft models, using the human lung squamous cell carcinoma line EBC-1.
The area under the curve (AUC) of tumour volume over time and BDC was taken and plotted against the corresponding dose group (FIG. 13).

[9] = Stability to reducing agent dithiothreitol (DTT); format: physicochemical; settings: Bicycle Drug Conjugates, quantitative LC-MS
Procedure: as §5

[10] = Kellogg et al (2011), cited from earlier work

In the case of `CC[C@H](C)[C@@H]1NC(=O)[C@H](CC(=O)O)NC(=O)[C@H](Cc2ccc(O)cc2)NC(=O)[C@H](Cc2ccccc2)NC(=O)[C@H](CC(=O)O)NC(=O)[C@H](CCC(=O)O)NC(=O)[C@@H]2CSCc3cc(cc(c3)CSC[C@H](NC(C)=O)C(=O)N[C@@H](Cc3ccc(O)cc3)C(=O)N[C@@H](CC(N)=O)C(=O)N[C@@H](CCC(=O)O)C(=O)N[C@@H](Cc3ccccc3)C(=O)NCC(=O)N2)CSC[C@@H](C(N)=O)NC1=O` [17-69-07-N004, Ac-(17-69-07) (wildtype)], the “Clearance based on AUC 0-∞” value [1] is reported as 20.7 mL/min/kg and the “Volume of Distribution based on AUC 0-∞” value [1] is reported as 0.4 L/kg.
In the case of `CC[C@H](C)[C@@H]1NC(=O)[C@H](CC(=O)O)NC(=O)[C@H](Cc2ccc(O)cc2)NC(=O)[C@H](Cc2ccccc2)NC(=O)[C@H](CC(=O)O)NC(=O)[C@H](CCC(=O)O)NC(=O)[C@@H]2CSCc3cc(cc(c3)CSC[C@H](NC(=O)[C@H](C)NC(=O)CN(C)C(=O)CN(C)C(=O)CN(C)C(=O)CN(C)C(=O)CN(C)C(=O)CN(C)C(=O)CN(C)C(=O)CN(C)C(=O)CN(C)C(=O)CN(C)C(=O)CN)C(=O)N[C@@H](Cc3ccc(O)cc3)C(=O)N[C@@H](CC(N)=O)C(=O)N[C@@H](CCC(=O)O)C(=O)N[C@@H](Cc3ccccc3)C(=O)NCC(=O)N2)CSC[C@@H](C(N)=O)NC1=O` [17-69-07-N219, G-Sar10-A-(17-69-07)] (H-G[Sar][Sar][Sar][Sar][Sar][Sar][Sar][Sar][Sar][Sar]ACYNEFGCEDFYDIC-NH2; linker 13-19-26 via TBMB; C-terminus assumed), the Kd ([2]; Table 12, molecules selected for plasma stability assessment, read-out: Kd) is reported as 0.82 ± 0.09 nM, the Kd ([2]; Table 13, Human/cyno MT1-MMP hemopexin domain, FP competition, read-out: Human/cyno (Kd)) is reported as 0.82 nM and the Kd ([2]; Table 16, FP competition, footnote e: 17-69-07-N004 as tracer, read-out: Kd (nM) (Hemopexin domain)) is reported as 0.82 ± 0.09 nM. For the same molecule, the Kd ([2]; read-out: Kd, affinity to PEX / MT1-MMP) was 0.82 nM, the Kd [3] was 900 pM and the half-life at 10 μM ([4]; ex vivo mouse plasma at 37° C., Method #2 (FIG. 1, FIG. 3A), read-out: half-life of the peptide in mouse plasma (converted)) was 6 h. The half-life at 4 μM ([4]; mouse plasma) was 3.9 ± 0.3 h, the half-life at 10 μM ([5]; 37° C., sentence prints mouse plasma, read-out: half-life of the peptide in plasma (FIG. 3B, human plasma stability) (converted)) was 6 h and the half-life at 4 μM ([5]; quantitative LC-MS, incubation up to 24 hrs, 4 μM BDC, read-out: t1/2 (hrs) (human plasma) (converted)) was 30.3 ± 4.7 h. The half-life at 4 μM ([6]; rat plasma (ex vivo)) was 3.7 h.
With `CC[C@H](C)[C@@H]1NC(=O)[C@H](CC(=O)O)NC(=O)[C@H](Cc2ccc(O)cc2)NC(=O)[C@H](Cc2ccccc2)NC(=O)[C@H](CC(=O)O)NC(=O)[C@H](CCC(=O)O)NC(=O)[C@@H]2CSCc3cc(cc(c3)CSC[C@H](NC(=O)[C@H](C)NC(=O)CN(C)C(=O)CN(C)C(=O)CN(C)C(=O)CN(C)C(=O)CN(C)C(=O)CN(C)C(=O)CN(C)C(=O)CN(C)C(=O)CN(C)C(=O)CN(C)C(=O)CNC(=O)CCCSSCCC(=O)N(C)[C@@H](C)C(=O)O[C@H]3CC(=O)N(C)c4cc(cc(OC)c4Cl)C/C(C)=C/C=C/[C@@H](OC)[C@@]4(O)C[C@H](OC(=O)N4)[C@@H](C)[C@@H]4O[C@@]34C)C(=O)N[C@@H](Cc3ccc(O)cc3)C(=O)N[C@@H](CC(N)=O)C(=O)N[C@@H](CCC(=O)O)C(=O)N[C@@H](Cc3ccccc3)C(=O)NCC(=O)N2)CSC[C@@H](C(N)=O)NC1=O` [BT17BDC-9] (X3-G[Sar][Sar][Sar][Sar][Sar][Sar][Sar][Sar][Sar][Sar]ACYNEFGCEDFYDIC-NH2; linker 13-19-26 via TBMB) the “weight of the animals during treatment” value [7] was “largely stable”, the “reduction in tumour volume compared to vehicle control” value ([7]; after 9 days post injection) was “significant reduction in tumour volume” and the “ED50, effective dose to achieve 50% tumour AUC reduction” value [8] was 2.1 ± 1.1^b mg/kg.
With `COc1cc2cc(c1Cl)N(C)C(=O)C[C@H](OC(=O)[C@H](C)N(C)C(=O)CCC(C)SSC(C)CCC(=O)NCCC(=O)N(C)CC(=O)N(C)CC(=O)N(C)CC(=O)N(C)CC(=O)N(C)CC(=O)N(C)CC(=O)N(C)CC(=O)N(C)CC(=O)N(C)CC(=O)N(C)CC(=O)N[C@@H](C)C(=O)N[C@H]1CSCc3cc4cc(c3)CSC[C@H](NC(=O)[C@@H](C)NC(=O)[C@H](Cc3cccc5ccccc35)NC(=O)[C@H](CCC(=O)O)NC(=O)[C@H](CC(N)=O)NC(=O)[C@@H](C)NC1=O)C(=O)N[C@@H](CCC(=O)O)C(=O)N[C@@H](CC(=O)O)C(=O)N[C@@H](Cc1ccccc1)C(=O)N[C@@H](Cc1ccc(O)cc1)C(=O)N[C@@H](CC(=O)O)C(=O)N[C@@H](C(C)(C)C)C(=O)N[C@H](C(N)=O)CSC4)[C@]1(C)O[C@H]1[C@H](C)[C@@H]1C[C@@](O)(NC(=O)O1)[C@H](OC)/C=C/C=C(\C)C2` (some centres unmarked) [BT17BDC-20] ({X2-βAla}-[Sar][Sar][Sar][Sar][Sar][Sar][Sar][Sar][Sar][Sar]AC[dA]NE[1Nal][dA]CEDFYD[Tle]C-NH2; linker 12-18-25 via TBMB) the half-life at 4 μM ([4]; plasma) was > 36 h, the half-life at 4 μM ([6]; plasma) was 34 ± 4 h and the “Relative Stability to DTT (BDC)” value [9] was 93. The “efficacy in EBC-1 xenograft” value ([8]; EBC-1 xenograft) was “not efficacious”, the “tolerability / body weight” value ([8]; EBC-1 xenograft) was “tolerated based on constant weight” and the “ED50, effective dose to achieve 50% tumour AUC reduction” value [8] was 22 ± 13^b mg/kg. The “fold reduction in sensitivity to a reducing agent such as dithiothreitol” value ([10]; in the antibody drug conjugate context, compared to the non-hindered disulphide) was 170 fold and the “Relative Stability to DTT (ADC)” value ([10]; values relate to antibody drug conjugates containing the same disulphide linker) was 170.

Source: patent US11672868B2, “Bicyclic peptide ligands specific for MT1-MMP” (priority 2014, dated 2023)
